Data published in patent publication US9743665B2, “Fungicidal 3-{phenyl[heterocyclylmethoxy)imino]methyl}-oxadiazolone derivatives” (BAYER CROPSCIENCE AKTIENGESELLSCHAFT, priority 2013, dated 2017).
Where two headings read alike, the source gives them in different places. Marks after values point to notes of the source that are not given here.

How the values were obtained:
[1] = pH 2.7
Description: Measurement of IogP values was performed according EEC directive 79/831 Annex V.A8 by HPLC (High Performance Liquid Chromatography) on reversed phase columns with the following methods:
Measurement of LC-MS was done at pH 2.7 with 0.1% formic acid in water and with acetonitrile (contains 0.1% formic acid) as eluent with a linear gradient from 10% acetonitrile to 95% acetonitrile.
Calibration was done with not branched alkan2-ones (with 3 to 16 carbon atoms) with known logP-values (measurement of logP values using retention times with linear interpolation between successive alkanones). lambda-maX-values were determined using UV-spectra from 200 nm to 400 nm and the peak values of the chromatographic signals.

[2] = system: Phytophthora infestans; format: in vivo; conditions: tomato plants, preventive spray, 500 ppm of active ingredient, evaluated 5 days after inoculation
[3] = for chromatographic logP: pH 2.7; for LogP: Table 1, formula (I), method [a]: HPLC/LC-MS at pH 2.7, 0.1% formic acid in water / acetonitrile gradient

Structure (SMILES) | LogP [1] | % efficacy [2] | other results
C#CCCOC(=O)Nc1csc(CO/N=C(/c2ccccc2)c2noc(=O)n2C)n1 [Example 1] | 2.97^[a] | 98% | 
Cn1oc(=O)nc1/C(=N\OCn1ccc([N+](=O)[O-])n1)c1ccccc1 [Example 2, 2-methyl-3-[(Z)-{[(3-nitro-1H-pyrazol-1-yl)methoxy]imino}(phenyl)methyl]-1,2,4-oxadiazol-5(2H)-one] |  |  | chromatographic logP [3]: 2.1
Cn1c(C(=NOCc2nc(Br)cs2)c2ccccc2)noc1=O [Example 3, 3-[{[(4-bromo-1,3-thiazol-2-yl)methoxy]imino}(phenyl)methyl]-4-methyl-1,2,4-oxadiazol-5(4H)-one] |  |  | chromatographic logP [3]: 3.25
Cn1oc(=O)nc1/C(=N\OCc1nc(C#CC2CC2)cs1)c1ccccc1 [Example 4, 3-[(Z)-({[4-(cyclopropylethynyl)-1,3-thiazol-2-yl]methoxy}imino)(phenyl)methyl]-2-methyl-1,2,4-oxadiazol-5(2H)-one] |  | 100% | chromatographic logP [3]: 3.04
Cn1oc(=O)nc1/C(=N\OCn1ccc(N)n1)c1ccccc1 [Example 8, 3-[(Z)-{[(3-amino-1H-pyrazol-1-yl)methoxy]imino}(phenyl)methyl]-2-methyl-1,2,4-oxadiazol-5(2H)-one] |  |  | chromatographic logP [3]: 1.29
Cn1c(/C(=N\OCc2nc(C(=O)NC3CCCCC3)cs2)c2ccccc2)noc1=O [Example 9] | 3.43^[a] | 79% | 
Cn1c(/C(=N\OCc2nc(NC(=O)C(C)(C)C)cs2)c2ccccc2)noc1=O [Example 11] | 3.23^[a] | 100% | 
Cn1c(/C(=N\OCc2nc(C#CCCc3ccccc3)cs2)c2ccccc2)noc1=O [Example 12] | 4.30^[a] | 100% | 
Cn1oc(=O)nc1/C(=N\OCc1nc(Br)cs1)c1ccccc1 [Example 14, 3-[(Z)-{[(4-bromo-1,3-thiazol-2-yl)methoxy]imino}(phenyl)methyl]-2-methyl-1,2,4-oxadiazol-5(2H)-one] |  | 74% | chromatographic logP [3]: 2.6
Cn1c(/C(=N\OCc2nc(NC(=O)Cc3ccccc3)cs2)c2ccccc2)noc1=O [Example 19] |  | 98% | LogP [3]: 3.21^[a]
CCCCC#Cc1csc(CO/N=C(/c2ccccc2)c2noc(=O)n2C)n1 [Example 21] | 4.26^[a] | 100% | 
CC(C)C#Cc1csc(CO/N=C(/c2ccccc2)c2noc(=O)n2C)n1 [Example 23] |  | 99% | LogP [3]: 3.86^[a]
CCCC/C=C/c1csc(CO/N=C(/c2ccccc2)c2noc(=O)n2C)n1 [Example 24] | 4.77^[a] | 98% | 
CCCCC#Cc1csc(CO/N=C(/c2ccccc2)c2noc(=O)[nH]2)n1 [Example 25] | 3.39^[a] |  | 
CCCC#Cc1csc(CO/N=C(/c2ccccc2)c2noc(=O)[nH]2)n1 [Example 26] | 3.47^[a] |  | 
Cn1c(/C(=N\OCc2nc(NC(=O)COc3ccccc3)cs2)c2ccccc2)noc1=O [Example 28] | 3.30^[a] | 73% | 
CCCCC/C=C/c1csc(CO/N=C(/c2ccccc2)c2noc(=O)n2C)n1 [Example 30] | 5.23^[a] | 97% | 
Cn1c(/C(=N\OCc2nc(C#CC3CCCCC3)cs2)c2ccccc2)noc1=O [Example 31] | 4.80^[a] | 94% | 
O=c1[nH]c(/C(=N\OCc2nc(C#CC3CCCCC3)cs2)c2ccccc2)no1 [Example 32] | 4.33^[a] |  | 
Cn1c(/C(=N\OCc2nc(NC(=O)COCc3ccccc3)cs2)c2ccccc2)noc1=O [Example 35] | 3.45^[a] | 93% | 
CCCC(C)C(=O)Nc1csc(CO/N=C(/c2ccccc2)c2noc(=O)n2C)n1 (stereo not shown) [Example 36] | 3.45^[a] | 99% | 
CCCCCC#Cc1csc(CO/N=C(/c2ccccc2)c2noc(=O)n2C)n1 [Example 37] | 4.72^[a] | 100% | 

Structure (SMILES) | LogP [1] | % efficacy [2] | other results
Cn1c(/C(=N\OCc2nc(C#CCc3ccccc3)cs2)c2ccccc2)noc1=O [Example 39] | 4.07^[a] | 88% | 
Cn1c(/C(=N\OCc2nc(/C=C/Cc3ccccc3)cs2)c2ccccc2)noc1=O [Example 41] | 4.39^[a] |  | 
C=CCOC(=O)Nc1csc(CO/N=C(/c2ccccc2)c2noc(=O)n2C)n1 [Example 42] | 3.02^[a] |  | 
Cn1oc(=O)nc1/C(=N\OCc1nc(C(=O)NC(C)(C)C)cs1)c1ccccc1 [Example 43] | 2.61^[a] |  | 
N#C/C(=N\OCn1ccc([N+](=O)[O-])n1)c1ccccc1 [Example IV-1, (2Z)-{[(3-nitro-1H-pyrazol-1-yl)methoxy]imino}(phenyl)acetonitrile] |  |  | chromatographic logP [3]: 2.9
COC(=O)c1csc(CON=C(C#N)c2ccccc2)n1 [Example IV-2] | 2.80^[a] |  | 
N#CC(=NOCc1nc(Br)cs1)c1ccccc1 [Example IV-3, {[(4-bromo-1,3-thiazol-2-yl)methoxy]imino}(phenyl)acetonitrile] |  |  | chromatographic logP [3]: 3.61
N#CC(=NOCn1ccc(N)n1)c1ccccc1 [Example IV-4] | 1.86^[a] |  | 
N#CC(=NOCc1nc(C#CCCCc2ccccc2)cs1)c1ccccc1 [Example IV-5] | 5.19^[a] |  | 
CCCC#Cc1csc(CON=C(C#N)c2ccccc2)n1 [Example IV-6] | 4.41^[a] |  | 
CCCCC#Cc1csc(CON=C(C#N)c2ccccc2)n1 [Example IV-7] | 4.83^[a] |  | 
N#CC(=NOCc1nc(C#CC2CC2)cs1)c1ccccc1 [Example IV-8] | 4.04^[a] |  | 
N#CC(=NOCc1nc(C#CC2CCCCC2)cs1)c1ccccc1 [Example IV-9] | 5.42^[a] |  | 
CCCCCC#Cc1csc(CON=C(C#N)c2ccccc2)n1 [Example IV-10] | 5.27^[a] |  | 
NC(=NO)C(=NOCn1ccc(N)n1)c1ccccc1 [Example V-1] | 0.65^[a] |  | 
NC(=NO)C(=NOCc1nc(Br)cs1)c1ccccc1 [Example V-2] | 1.86^[a] |  | 
CCCC#Cc1csc(CON=C(C(N)=NO)c2ccccc2)n1 [Example V-3] | 2.59^[a] |  | 
CCCCC#Cc1csc(CON=C(C(N)=NO)c2ccccc2)n1 [Example V-4] | 2.98^[a] |  | 
NC(=NO)C(=NOCc1nc(C#CC2CCCCC2)cs1)c1ccccc1 [Example V-5] | 3.42^[a] |  | 
CCCCCC#Cc1csc(CON=C(C(N)=NO)c2ccccc2)n1 [Example V-6] | 3.37^[a] |  | 
CN(O)C(=N)/C(=N\OCn1ccc([N+](=O)[O-])n1)c1ccccc1 [Example VI-1, (2Z)—N-hydroxy-N-methyl-2-{[(3-nitro-1H-pyrazol-1-yl)methoxy]imino}-2-phenylethanimidamide] |  |  | chromatographic logP [3]: 1.15
CN(O)C(=N)/C(=N\OCc1nc(Br)cs1)c1ccccc1 [Example VI-2, (2Z)-2-{[(4-bromo-1,3-thiazol-2yl)methoxy]imino}-N-hydroxy-N-methyl-2-phenylethanimidamide] |  |  | chromatographic logP [3]: 1.49
